Experimental findings from patent US7820648B2, “Pyrimidine derivatives for the treatment of abnormal cell growth” (Pfizer Inc, priority 2005, dated 2010) are described below.

The compound `CC(=O)N1[C@@H]2CC[C@H]1c1ccc(Nc3ncc(C)c(NC4CC4)n3)cc12` had a melting point of 108 to 112 °C.

For orientation: melting point means the temperature of the solid-liquid transition.
